19 compounds from patent publication US20230072683A1, “PYRIDO-PYRIMIDIN DERIVATIVES AND PHARMACEUTICAL COMPOSITION, FOR USE IN PREVENTING OR TREATING PI3 KINASE RELATED DISEASES, COMPRISING SAME AS ACTIVE INGREDIENT” (BORYUNG PHARMACEUTICAL CO., LTD, priority 2019, published 2023) can be followed below.

Test [1] concerns the target DNA-PK(h) (Homo sapiens, UniProt P78527). As to the kind of experiment: Evaluation of inhibitory activity against DNA-PK (HTRF kinase assay, GST-cMyc-p53 substrate). The format is biochemical. To be noted: for inhibition at 0.1 µM: read-out: EXP_VALUE(% Inhibition) DNA-PK(h) 0.1 μM; for inhibition at 0.01 µM: compound concentration 0.01 μM, read-out: EXP_VALUE(% Inhibition) DNA-PK(h) 0.01 μM. Summed up: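 p53 Ser15 phosphorylation by human DNA-PK was measured by time-resolved FRET ratio (665/620 nm ×10000) using Eu-labelled anti-phospho-Ser15 and d2 anti-GST antibodies. Substrate GST-cMyc-p53 at 50 μM; Mg/ATP-initiated, 30 min at room temperature, EDTA stop.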
For orientation: In TR-FRET formats the signal depends on donor and acceptor labels being close together.

For test [2], the target named is PI3K-δ (PI3K(p1108/p857) (h)) (Homo sapiens, UniProt O00329). As to the kind of experiment: Evaluation of inhibitory activity against PI3K-δ (HTRF kinase assay). To be noted: for inhibition at 0.1 µM: read-out: EXP_VALUE(% Inhibition) PI3K-δ 0.1 μM; for inhibition at 0.01 µM: compound concentration 0.01 μM, read-out: EXP_VALUE(% Inhibition) PI3K-δ 0.01 μM. The format is biochemical. Summed up:
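HTRF read-out (665/620 nm ratio ×10000) used Eu-labelled anti-GST, GST-tagged GRP1 PH domain and streptavidin-allophycocyanin after EDTA/PIP3 stop.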

For orientation: inhibition means the change of the read-out against control, counted positive when it falls.

Read-outs that look alike come from different tables or passages of the source.

PI3K-δ (PI3K(p1108/p857) (h)), sequence (O00329 whole entry, the tested form may be a part): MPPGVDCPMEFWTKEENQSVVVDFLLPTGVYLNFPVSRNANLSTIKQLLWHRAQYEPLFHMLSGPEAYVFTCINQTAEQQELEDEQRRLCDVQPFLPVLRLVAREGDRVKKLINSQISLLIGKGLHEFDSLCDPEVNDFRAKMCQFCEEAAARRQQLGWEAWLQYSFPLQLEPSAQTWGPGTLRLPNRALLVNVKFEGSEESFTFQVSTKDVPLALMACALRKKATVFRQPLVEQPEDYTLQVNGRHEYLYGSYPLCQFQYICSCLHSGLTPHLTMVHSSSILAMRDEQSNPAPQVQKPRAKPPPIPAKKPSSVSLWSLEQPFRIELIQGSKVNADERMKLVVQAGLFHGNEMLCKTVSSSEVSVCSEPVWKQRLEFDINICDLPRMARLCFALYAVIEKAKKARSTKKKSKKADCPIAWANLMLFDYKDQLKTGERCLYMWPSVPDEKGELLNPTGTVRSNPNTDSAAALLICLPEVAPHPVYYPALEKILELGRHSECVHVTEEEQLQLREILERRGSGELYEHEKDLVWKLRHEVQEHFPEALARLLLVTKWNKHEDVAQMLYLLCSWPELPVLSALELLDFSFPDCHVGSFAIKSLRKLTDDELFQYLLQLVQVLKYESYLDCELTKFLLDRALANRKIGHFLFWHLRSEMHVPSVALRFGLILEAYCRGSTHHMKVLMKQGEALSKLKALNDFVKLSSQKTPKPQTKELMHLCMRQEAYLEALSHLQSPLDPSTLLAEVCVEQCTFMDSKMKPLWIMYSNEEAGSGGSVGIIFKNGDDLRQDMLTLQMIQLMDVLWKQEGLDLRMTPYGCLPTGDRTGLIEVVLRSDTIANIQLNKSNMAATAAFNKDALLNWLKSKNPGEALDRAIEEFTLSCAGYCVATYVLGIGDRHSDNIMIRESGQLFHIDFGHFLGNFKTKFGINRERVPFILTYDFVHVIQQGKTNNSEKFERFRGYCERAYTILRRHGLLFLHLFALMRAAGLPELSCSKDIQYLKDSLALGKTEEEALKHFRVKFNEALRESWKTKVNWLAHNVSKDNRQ
PI3K-δ (PI3K(p1108/p857) (h)), sequence (P27986 whole entry partner, the tested form may be a part): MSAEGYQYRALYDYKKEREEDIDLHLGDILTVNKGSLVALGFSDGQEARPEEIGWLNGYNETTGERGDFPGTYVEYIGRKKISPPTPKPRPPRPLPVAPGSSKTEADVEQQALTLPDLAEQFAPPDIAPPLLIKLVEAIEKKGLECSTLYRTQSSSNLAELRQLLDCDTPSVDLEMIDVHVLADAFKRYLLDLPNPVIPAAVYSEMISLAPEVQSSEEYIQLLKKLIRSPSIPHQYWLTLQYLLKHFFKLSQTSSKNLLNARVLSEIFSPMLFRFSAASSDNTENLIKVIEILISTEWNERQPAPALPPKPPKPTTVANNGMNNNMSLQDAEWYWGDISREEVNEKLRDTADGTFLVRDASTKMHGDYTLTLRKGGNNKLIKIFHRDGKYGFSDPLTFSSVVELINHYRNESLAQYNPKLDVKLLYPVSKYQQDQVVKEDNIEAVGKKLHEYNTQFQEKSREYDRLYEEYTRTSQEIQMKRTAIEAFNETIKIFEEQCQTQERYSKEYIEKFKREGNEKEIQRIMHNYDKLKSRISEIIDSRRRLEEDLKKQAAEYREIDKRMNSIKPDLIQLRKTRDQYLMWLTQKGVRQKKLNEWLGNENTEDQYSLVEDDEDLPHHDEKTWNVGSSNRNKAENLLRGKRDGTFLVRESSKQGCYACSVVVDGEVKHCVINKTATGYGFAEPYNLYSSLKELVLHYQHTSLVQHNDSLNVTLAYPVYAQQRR

As for `C[C@H](Nc1ncnc2[nH]ccc(=O)c12)c1c(Cl)c2cccc(S(=O)(=O)c3ncccn3)c2c(=O)n1-c1ccccc1` [Example 420, (S)-4-((1-(4-chloro-1-oxo-2-phenyl-8-(pyrimidin-2-ylsulfonyl)-1,2-dihydroisoquinolin-3-yl)ethyl)amino)pyrido[2,3-d]pyrimidin-5(8H)-one], the results for the inhibition at 0.1 µM in test [1] (compound at 0.1 μM) and in test [2] (compound at 0.1 μM) were 36% and 37%, respectively.
As to `C[C@H](Nc1ncnc2[nH]ccc(=O)c12)c1c(Cl)c2cccc(-c3cncc(N4CCOCC4)n3)c2c(=O)n1-c1ccccc1` [Example 210, (S)-4-((1-(4-chloro-8-(6-morpholinopyrazin-2-yl)-1-oxo-2-phenyl-1,2-dihydroisoquinolin-3-yl)ethyl)amino)pyrido[2,3-d]pyrimidin-5(8H)-one], the inhibition at 0.01 µM came out at 56% in test [1] and 73% in test [2].
In the case of `C[C@H](Nc1ncnc2[nH]ccc(=O)c12)c1c(Cl)c2cccc(-c3ccc(N(C)C)cc3)c2c(=O)n1-c1ccccc1` [Example 72, (S)-4-((1-(4-chloro-8-(4-(dimethylamino)phenyl)-1-oxo-2-phenyl-1,2-dihydroisoquinolin-3-yl)ethyl)amino)pyrido[2,3-d]pyrimidin-5(8H)-one], the inhibition at 0.01 µM turned out to be 58% in test [1] and 99% in test [2]. In addition, the results for the inhibition at 0.1 µM in test [1] (compound concentration 0.1 μM) and in test [2] (compound concentration 0.1 μM) were 96% and 112%, respectively.
For the compound `CC(C)S(=O)(=O)c1ccc(-c2cccc3c(Cl)c([C@H](C)Nc4ncnc5[nH]ccc(=O)c45)n(-c4ccccc4)c(=O)c23)cc1` [Example 209, (S)-4-((1-(4-chloro-8-(4-(isopropylsulfonyl)phenyl)-1-oxo-2-phenyl-1,2-dihydroisoquinolin-3-yl)ethyl)amino)pyrido[2,3-d]pyrimidin-5(8H)-one], the inhibition at 0.01 µM in test [1] was 77%; in test [2], 67%.
For `C[C@H](Nc1ncnc2[nH]ccc(=O)c12)c1c(Cl)c2cccc(-c3cnccn3)c2c(=O)n1-c1ccccc1` [Example 198, (S)-4-((1-(4-chloro-1-oxo-2-phenyl-8-(pyrazin-2-yl)-1,2-dihydroisoquinolin-3-yl)ethyl)amino)pyrido[2,3-d]pyrimidin-5(8H)-one], the inhibition at 0.01 µM worked out at 63% in test [1] and 90% in test [2].
As for `C[C@H](Nc1ncnc2[nH]ccc(=O)c12)c1cc2cccc(-c3cccnc3)c2c(=O)n1-c1ccccc1` [Example 12, (S)-4-((1-(1-oxo-2-phenyl-8-(pyridin-3-yl)-1,2-dihydroisoquinolin-3-yl)ethyl)amino)pyrido[2,3-d]pyrimidin-5(8H)-one], the inhibition at 0.01 µM amounted to 6% in test [1] and 102% in test [2]. The values for the inhibition at 0.1 µM in test [1] (compound concentration 0.1 μM) and in test [2] (compound concentration 0.1 μM) were 21% and 114%, respectively.
On the same counts, the results for `C[C@H](Nc1ncnc2[nH]ccc(=O)c12)c1cc2cccc(-c3ccc(N(C)C)cc3)c2c(=O)n1-c1ccccc1` [Example 20, (S)-4-((1-(8-(4-(dimethylamino)phenyl)-1-oxo-2-phenyl-1,2-dihydroisoquinolin-3-yl)ethyl)amino)pyrido[2,3-d]pyrimidin-5(8H)-one] are 3%, 67%, 55% and 95%.
For the compound `C[C@H](Nc1ncnc2[nH]ccc(=O)c12)c1c(Cl)c2cccc(-c3cnc4ccccc4c3)c2c(=O)n1-c1ccccc1` [Example 213, (S)-4-((1-(4-chloro-1-oxo-2-phenyl-8-(quinolin-3-yl)-1,2-dihydroisoquinolin-3-yl)ethyl)amino)pyrido[2,3-d]pyrimidin-5(8H)-one], the inhibition at 0.01 µM was 69% in test [1] and 98% in test [2].
On to `C[C@H](Nc1ncnc2[nH]ccc(=O)c12)c1c(Cl)c2cccc(C3CC3)c2c(=O)n1-c1ccccc1` [Example 66, (S)-4-((1-(4-chloro-8-cyclopropyl-1-oxo-2-phenyl-1,2-dihydroisoquinolin-3-yl)ethyl)amino)pyrido[2,3-d]pyrimidin-5(8H)-one], for which the inhibition at 0.01 µM in test [1] came out at 59%; in test [2], 72%. Also, the results for the inhibition at 0.1 µM in test [1] (compound concentration 0.1 μM) and in test [2] (compound concentration 0.1 μM) were 92% and 103%, respectively.
For `C[C@H](Nc1ncnc2[nH]ccc(=O)c12)c1c(Cl)c2cccc(-c3cnc(Cl)c4ccccc34)c2c(=O)n1-c1ccccc1` [Example 69, (S)-1,4′-dichloro-3′-(1-((5-oxo-5,8-dihydropyrido[2,3-d]pyrimidin-4-yl)amino)ethyl)-2′-phenyl-(4,8′-biisoquinolin)-1′(2′H)-one], in that order: 3%, 3.3%, 2.7% and 14.5%.
Regarding `C[C@H](Nc1ncnc2[nH]ccc(=O)c12)c1c(Cl)c2cccc(C(=O)NCc3ccco3)c2c(=O)n1-c1ccccc1` [Example 279, (S)-4-chloro-N-(furan-2-ylmethyl)-1-oxo-3-(1-((5-oxo-5,8-dihydropyrido[2,3-d]pyrimidin-4-yl)amino)ethyl)-2-phenyl-1,2-dihydroisoquinoline-8-carboxamide], the inhibition at 0.01 µM in test [1] turned out to be 11%; in test [2] it was 105%.
Turning to `C[C@H](Nc1ncnc2[nH]ccc(=O)c12)c1c(Cl)c2cccc(-c3ccc(N4CCCCC4)nc3)c2c(=O)n1-c1ccccc1` [Example 194, (S)-4-((1-(4-chloro-1-oxo-2-phenyl-8-(6-(piperidin-1-yl)pyridin-3-yl)-1,2-dihydroisoquinolin-3-yl)ethyl)amino)pyrido[2,3-d]pyrimidin-5(8H)-one], the inhibition at 0.01 µM stood at 31% in test [1] and 59% in test [2].
On the same counts, the results for `CCCNC(=O)c1cccc2c(Cl)c([C@H](C)Nc3ncnc4[nH]ccc(=O)c34)n(-c3ccccc3)c(=O)c12` [Example 275, (S)-4-chloro-1-oxo-3-(1-((5-oxo-5,8-dihydropyrido[2,3-d]pyrimidin-4-yl)amino)ethyl)-2-phenyl-N-propyl-1,2-dihydroisoquinoline-8-carboxamide] are 8% and 104%.
For the compound `C[C@H](Nc1ncnc2[nH]ccc(=O)c12)c1c(Cl)c2cccc(-c3ccc(N(C)C)nc3)c2c(=O)n1-c1ccccc1` [Example 86, (S)-4-((1-(4-chloro-8-(6-(dimethylamino)pyridin-3-yl)-1-oxo-2-phenyl-1,2-dihydroisoquinolin-3-yl)ethyl)amino)pyrido[2,3-d]pyrimidin-5(8H)-one], the values for the inhibition at 0.01 µM in test [1] and in test [2] were 72% and 67%, respectively. Also, the inhibition at 0.1 µM in test [1] (compound concentration 0.1 μM) was 95%; in test [2] (compound concentration 0.1 μM), 94%.
For `COc1cc(-c2cccc3c(Cl)c([C@H](C)Nc4ncnc5[nH]ccc(=O)c45)n(-c4ccccc4)c(=O)c23)cc(OC)c1OC` [Example 103, (S)-4-((1-(4-chloro-1-oxo-2-phenyl-8-(3,4,5-trimethoxyphenyl)-1,2-dihydroisoquinolin-3-yl)ethyl)amino)pyrido[2,3-d]pyrimidin-5(8H)-one], in that order: 91%, 91%, 101% and 103%.
On to `C[C@H](Nc1ncnc2[nH]ccc(=O)c12)c1c(Cl)c2cccc(-c3cc(O)c(O)c(F)c3)c2c(=O)n1-c1ccccc1` [Example 36, (S)-4-((1-(4-chloro-8-(3-fluoro-4,5-dihydroxyphenyl)-1-oxo-2-phenyl-1,2-dihydroisoquinolin-3-yl)ethyl)amino)pyrido[2,3-d]pyrimidin-5(8H)-one], for which the inhibition at 0.01 µM was 34% in test [1] and 74% in test [2].
For `Cc1cc(C#N)ccc1-c1cccc2c(Cl)c([C@H](C)Nc3ncnc4[nH]ccc(=O)c34)n(-c3ccccc3)c(=O)c12` [Example 67, (S)-4-(4-chloro-1-oxo-3-(1-((5-oxo-5,8-dihydropyrido[2,3-d]pyrimidin-4-yl)amino)ethyl)-2-phenyl-1,2-dihydroisoquinolin-8-yl)-3-methylbenzonitrile], the results for the inhibition at 0.01 µM in test [1] and in test [2] were 56% and 82%, respectively. Also, the inhibition at 0.1 µM in test [1] (compound concentration 0.1 μM) is 86%; in test [2] (compound concentration 0.1 μM), 92%.
On the same counts, the results for `C[C@H](Nc1ncnc2[nH]ccc(=O)c12)c1c(Cl)c2cccc(N(C)Cc3ccc4ccccc4c3)c2c(=O)n1-c1ccccc1` [Example 334, (S)-4-((1-(4-chloro-8-(methyl(naphthalen-2-ylmethyl)amino)-1-oxo-2-phenyl-1,2-dihydroisoquinolin-3-yl)ethyl)amino)pyrido[2,3-d]pyrimidin-5(8H)-one] are 10%, 9%, 27% and 49%.
As to `C[C@H](Nc1ncnc2[nH]ccc(=O)c12)c1c(Cl)c2cccc(-c3nc(N)nc(N)n3)c2c(=O)n1-c1ccccc1` [Example 293, (S)-4-((1-(4-chloro-8-(4,6-diamino-1,3,5-triazin-2-yl)-1-oxo-2-phenyl-1,2-dihydroisoquinolin-3-yl)ethyl)amino)pyrido[2,3-d]pyrimidin-5(8H)-one], the inhibition at 0.01 µM in test [1] was 1%; in test [2], 24%.
